Measured values taken from PMC9199882 (Clinical and Translational Science, 2022).
Like-named read-outs stand apart in the source and are kept apart here.

How the values were obtained:
CYP2C8 = assay: Effect of asciminib on CYP2C8 substrate repaglinide; conditions: for AUClast G mean ratio (90% CI) / Cmax G mean ratio (90% CI): repaglinide + asciminib / repaglinide
blood glucose = assay: Blood glucose concentration-time profile of repaglinide; type: in vivo, human; conditions: blood glucose concentration–time profiles, 6 h post-dose, days 1 and 5
[1] = Repaglinide plasma PK, DDI study stage 2
CYP2C9 = assay: Effect of asciminib on CYP2C9 substrate warfarin
[2] = for Cmax, adjusted G mean: linear mixed model
CYP3A = assay: Effect of asciminib on CYP3A substrate midazolam; conditions: for AUClast G mean ratio (90% CI) / Cmax G mean ratio (90% CI): midazolam + asciminib / midazolam
[3] = cited from earlier work
[4] = patients with CML, doses of up to 200 mg b.i.d.; cited from earlier work
[5] = patients with CML, 40 mg bid, ref Novartis, unpublished data, cited from earlier work
[6] = Midazolam and 1-hydroxymidazolam plasma PK, DDI study stage 1
[7] = warfarin 10 mg oral, cited from earlier work
prothrombin time = assay: Prothrombin pharmacodynamic analysis of warfarin; conditions: warfarin + asciminib vs warfarin alone
[8] = midazolam 7.5 mg oral; cited from earlier work
[9] = repaglinide in the presence of asciminib vs alone
[10] = warfarin at asciminib steady-state vs warfarin alone
[11] = warfarin 5 mg oral + asciminib 40 mg b.i.d. steady-state, day 11, plasma
[12] = warfarin 5 mg oral alone, day 1, plasma
[13] = warfarin + asciminib 40 mg b.i.d. steady-state
[14] = ref Novartis, unpublished data, 9, 10
[15] = midazolam at asciminib steady-state vs midazolam alone

SMILES: CCOc1cc(CC(=O)N[C@@H](CC(C)C)c2ccccc2N2CCCCC2)ccc1C(=O)O [Repaglinide, repaglinide]
- AUClast G mean ratio (90% CI) (CYP2C8): 1.09
- Cmax G mean ratio (90% CI) (CYP2C8): 1.14
- AUClast G mean ratio (90% CI) (CYP2C8; listed as repaglinide): 1.09 (1.03, 1.15)
- Cmax G mean ratio (90% CI) (CYP2C8; listed as repaglinide): 1.14 (1.01, 1.28)
- increase in AUCinf (CYP2C8; [9]): 8%
- increase in AUClast (CYP2C8; [9]): 9%
- increase in Cmax (CYP2C8; [9]): 14%
- glucose‐metabolizing activity alone or in combination with asciminib (blood glucose): no difference
- Cmax ([1]; human, plasma, oral, 0.5 mg): 6.71 ng/mL
- Cmax ([1]; human, plasma, po, 0.5 mg): 6.71 ng/mL
- Tmax ([1]; human, plasma, po, 0.5 mg): 0.75 h
- Vd/F ([1]; human, plasma, po, 0.5 mg): 162 L
- CL/F, G mean (GCV%) ([1]; repaglinide 0.5 mg oral + asciminib 40 mg b.i.d. steady-state, day 5): 43.2 (38.2) L/h
- T 1/2, G mean (GCV%) ([1]; repaglinide 0.5 mg oral + asciminib 40 mg b.i.d. steady-state, day 5, plasma): 2.09 (76.3) h
- CL/F, G mean (GCV%) ([1]; repaglinide 0.5 mg oral alone, day 1): 46.3 (36.8) L/h
- T 1/2, G mean (GCV%) ([1]; repaglinide 0.5 mg oral alone, day 1, plasma): 2.42 (46.2) h

SMILES: CC(=O)C[C@H](c1ccccc1)c1c(O)c2ccccc2oc1=O [R‐Warfarin, R‐warfarin]
- increase in AUCinf (CYP2C9; [10]): 25%
- increase in AUClast (CYP2C9; [10]): 24%
- increase in Cmax (CYP2C9; [10]): 10%
- Cmax, G mean (GCV%) [2, 11]: 213 (20.4) ng/ml
- Tmax, median (range) [2, 11]: 2.95 (0.94–11.7) h
- Cmax, G mean (GCV%) [2, 12]: 196 (19.6) ng/ml
- Tmax, median (range) [2, 12]: 2.01 (0.99–12.0) h
- Tmax, median (range) ([2]; warfarin 5 mg oral alone, day 1, plasma, listed as R‐warfarin): 2.0 h
- Cmax, adjusted G mean [2, 13]: 215 ng/mL
- Cmax, adjusted G mean ([2]; warfarin alone): 196 ng/mL

SMILES: O=C(Nc1ccc(OC(F)(F)Cl)cc1)c1cnc(N2CC[C@@H](O)C2)c(-c2ccn[nH]2)c1 [Asciminib, asciminib]
- effect on CYP2C8 (CYP2C8; asciminib 40 mg b.i.d.): no meaningful effect
- inhibitor classification, CYP3A (CYP3A; human, in vivo): weak inhibitor
- half‐life (T 1/2) [3]: 7 to 15 h
- unchanged asciminib in urine [3]: 2.5%
- unchanged asciminib share of drug‐related exposure in plasma [3]: > 90%
- mean recovery from feces ([3]; disposition studies in humans): 80%
- clearance pathway: direct glucuronidation by UGT ([3]; mainly UGT2B7, UGT2B17, UGT1A3/4, ref Novartis, unpublished data, 9, 10): 27.9%
- clearance pathway: oxidation by CYP3A4 ([3]; part of the CYP oxidation, ref Novartis, unpublished data, 9, 10): 36%
- median time to reach the maximum plasma concentration (Tmax) ([3]; post‐dose): 2 to 3 h
- clearance pathway: biliary secretion by BCRP [3, 14]: 31.1%
- clearance pathway: oxidation by cytochrome P450 enzymes [3, 14]: 37.8%
- inhibitor classification, CYP2C9 (CYP2C9; asciminib 40 mg b.i.d.): weak inhibitor
- maximum tolerated dose [4]: not reached
- Cmax at steady‐state, unbound asciminib [5]: 48 nM
- Cmax ([5]; read-out: Cmax at steady‐state, total asciminib): 1770 nM

SMILES: OCc1ncc2n1-c1ccc(Cl)cc1C(c1ccccc1F)=NC2 [1-hydroxymidazolam, 1‐hydroxymidazolam]
- metabolite‐to‐parent ratio of G mean AUCinf ([6]; midazolam alone): 0.31
- metabolite‐to‐parent ratio of G mean AUClast ([6]; midazolam alone): 0.31
- metabolite‐to‐parent ratio of G mean AUCinf ([6]; midazolam with asciminib): 0.29
- metabolite‐to‐parent ratio of G mean AUClast ([6]; midazolam with asciminib): 0.27

SMILES: CC(=O)CC(c1ccccc1)c1c(O)c2ccccc2oc1=O (stereo not drawn) [Warfarin, warfarin]
- Cmax ([7]; read-out: median Cmax): 1700 to 2000 nM
- median Cmax ([7]; converted from μM): 500 to 600 ng/mL
- median Tmax [7]: 2 h
- anticoagulation activity on co‐administration with asciminib (prothrombin time): unaffected

SMILES: Cc1ncc2n1-c1ccc(Cl)cc1C(c1ccccc1F)=NC2 [Midazolam, midazolam]
- AUClast G mean ratio (90% CI) (CYP3A): 1.27
- Cmax G mean ratio (90% CI) (CYP3A): 1.11
- AUClast G mean ratio (90% CI) (CYP3A; listed as midazolam): 1.27 (1.14, 1.41)
- Cmax G mean ratio (90% CI) (CYP3A; listed as midazolam): 1.11 (0.96, 1.28)
- increase in AUCinf (CYP3A; [15]): 28%
- increase in AUClast (CYP3A; [15]): 27%
- increase in Cmax (CYP3A; [15]): 11%
- median Cmax [8]: 63.1 ng/mL
- median T 1/2 [8]: 3.2 h
- median Tmax [8]: 0.34 h
- AUC(0-inf) ([6]; human, plasma, oral, AUCinf, adjusted G mean, midazolam alone, linear mixed model): 37.4 ng·h/mL
- AUC(0-t) ([6]; human, plasma, oral, AUClast, adjusted G mean, midazolam alone, linear mixed model): 35.4 ng·h/mL
- Cmax ([6]; human, plasma, oral, Cmax, adjusted G mean, midazolam alone, linear mixed model): 15.9 ng/mL
- Tmax ([6]; human, plasma, po, 4 mg): 0.51 h
- Vd/F ([6]; human, plasma, po, 4 mg): 413 L
- CL/F, G mean (GCV%) ([6]; midazolam 4 mg oral + asciminib 40 mg b.i.d. steady-state, day 11): 83.0 (38.8) L/h
- AUClast, G mean (GCV%) ([6]; midazolam 4 mg oral + asciminib 40 mg b.i.d. steady-state, day 11, plasma): 44.9 (38.1) ng × h/ml
- CL/F, G mean (GCV%) ([6]; midazolam 4 mg oral alone, day 1): 107 (31.2) L/h

SMILES: CC(=O)C[C@@H](c1ccccc1)c1c(O)c2ccccc2oc1=O [S‐Warfarin, S‐warfarin]
- increase in AUClast (CYP2C9; [10]): 39%
- increase in Cmax (CYP2C9; [10]): 9%
- Cmax, G mean (GCV%) [2, 11]: 225 (17.2) ng/ml
- Tmax, median (range) [2, 11]: 2.00 (0.94–3.99) h
- Cmax, G mean (GCV%) [2, 12]: 209 (18.6) ng/ml
- Tmax, median (range) [2, 12]: 2.00 (0.99–4.00) h
- Cmax, adjusted G mean [2, 13]: 227 ng/mL
- Cmax, adjusted G mean ([2]; warfarin alone): 209 ng/mL
